Experimental data: ChEMBL document CHEMBL3608289, “Miltirone Is a Dual Inhibitor of P-Glycoprotein and Cell Growth in Doxorubicin-Resistant HepG2 Cells” (J Nat Prod, 2015)
Activity calls are given as the source filed them. The rule behind the calls is not given here.

Experiments:
HepG2 [1] = experiment: Induction of apoptosis in human HepG2 cells assessed as increase in PARP cleavage at 25 uM after 24 hrs by Western blotting; type: functional, cell-based
HepG2 [2] = experiment: Induction of apoptosis in human HepG2 cells assessed as activation of caspase-3/8/9 at 25 uM after 24 hrs by Western blotting; type: functional, cell-based
HepG2 [3] = experiment: Increase of SAPK/JNK phosphorylation in human HepG2 cells at 25 uM by Western blot analysis; type: cell-based
HepG2 [4] = experiment: Effect on nonphosphorylated ERK1/ERK2 level in human doxorubicin-resistant HepG2 cells expressing p-gp at 25 uM by Western blot analysis; type: ADME, cell-based; details: hepg2, 25 µM
HepG2 [5] = experiment: Increase of SAPK/JNK phosphorylation in human doxorubicin-resistant HepG2 cells expressing p-gp at 25 uM by Western blot analysis; type: cell-based
HepG2 [6] = experiment: Induction of apoptosis in human doxorubicin-resistant HepG2 cells expressing p-gp assessed as activation of caspase-3/8/9 at 25 uM after 24 hrs by Western blotting; type: functional, cell-based
[7] = target: T1, MAP kinase p38 (Homo sapiens) (UniProt O15264+Q15759+Q16539+P53778); experiment: Inhibition of p38 MAPK phosphorylation in human HepG2 cells at 25 uM by Western blot analysis; type: cell-based
HepG2 [8] = experiment: Effect on nonphosphorylated ERK1/ERK2 level in human HepG2 cells at 25 uM by Western blot analysis; type: ADME, cell-based; details: hepg2, 25 µM
[9] = target: T2, Mitogen-activated protein kinase; ERK1/ERK2 (Homo sapiens) (UniProt P27361+P28482); experiment: Inhibition of ERK1/2 phosphorylation in human HepG2 cells at 25 uM by Western blot analysis; type: cell-based
T2 sequence (P27361 whole entry, looked up): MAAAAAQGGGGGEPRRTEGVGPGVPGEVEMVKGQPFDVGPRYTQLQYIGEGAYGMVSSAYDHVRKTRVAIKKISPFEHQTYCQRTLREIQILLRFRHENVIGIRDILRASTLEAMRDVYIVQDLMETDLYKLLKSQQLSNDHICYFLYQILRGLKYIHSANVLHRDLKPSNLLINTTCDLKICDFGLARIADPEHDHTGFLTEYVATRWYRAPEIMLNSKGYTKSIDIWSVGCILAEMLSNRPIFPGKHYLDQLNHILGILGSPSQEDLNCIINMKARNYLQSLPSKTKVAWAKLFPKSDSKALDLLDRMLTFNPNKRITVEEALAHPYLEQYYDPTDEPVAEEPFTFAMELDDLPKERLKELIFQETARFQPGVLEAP
T2 sequence (P28482 whole entry, looked up): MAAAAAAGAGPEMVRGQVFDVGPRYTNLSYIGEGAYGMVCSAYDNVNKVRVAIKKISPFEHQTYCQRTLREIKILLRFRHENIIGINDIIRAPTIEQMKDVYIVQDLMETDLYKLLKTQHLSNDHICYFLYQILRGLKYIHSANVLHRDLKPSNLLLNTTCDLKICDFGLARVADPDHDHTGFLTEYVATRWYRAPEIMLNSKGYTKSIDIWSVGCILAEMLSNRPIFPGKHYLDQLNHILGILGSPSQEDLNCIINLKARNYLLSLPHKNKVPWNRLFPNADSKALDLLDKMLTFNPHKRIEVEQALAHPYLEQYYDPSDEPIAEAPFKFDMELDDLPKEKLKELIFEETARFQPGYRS

HepG2 [10] = experiment: Effect on nonphosphorylated SAPK/JNK level in human doxorubicin-resistant HepG2 cells expressing p-gp at 25 uM by Western blot analysis; type: ADME, cell-based; details: hepg2, 25 µM
HepG2 [11] = experiment: Effect on nonphosphorylated SAPK/JNK level in human HepG2 cells at 25 uM by Western blot analysis; type: ADME, cell-based; details: hepg2, 25 µM
[12] = target: T2, Mitogen-activated protein kinase; ERK1/ERK2 (Homo sapiens); experiment: Inhibition of ERK1/2 phosphorylation in human doxorubicin-resistant HepG2 cells expressing p-gp at 25 uM by Western blot analysis; type: cell-based
HepG2 [13] = experiment: Induction of apoptosis in human doxorubicin-resistant HepG2 cells expressing p-gp assessed as increase in PARP cleavage at 25 uM after 24 hrs by Western blotting; type: functional, cell-based
HepG2 [14] = experiment: Effect on nonphosphorylated p38 MAPK level in human doxorubicin-resistant HepG2 cells expressing p-gp at 25 uM by Western blot analysis; type: ADME, cell-based; details: hepg2, 25 µM
[15] = target: T1, MAP kinase p38 (Homo sapiens); experiment: Inhibition of p38 MAPK phosphorylation in human doxorubicin-resistant HepG2 cells expressing p-gp at 25 uM by Western blot analysis; type: cell-based
HepG2 [16] = experiment: Effect on nonphosphorylated p38 MAPK level in human HepG2 cells at 25 uM by Western blot analysis; type: ADME, cell-based; details: hepg2, 25 µM

With `Cc1cccc2c3c(ccc12)C1=C(C(=O)C3=O)[C@@H](C)CO1` [DIHYDROTANSHINONE I] the Activity (HepG2 [1]) was “Active”, the Activity (HepG2 [2]) was “Active” and the Activity (HepG2 [3]) was “Active”. The Activity (HepG2 [4]) was “Non-toxic”, the Activity (HepG2 [5]) was “inactive” and the Activity (HepG2 [6]) was “Active”. The inhibition [7] was “Active”, the Activity (HepG2 [8]) was “Non-toxic” and the inhibition [9] was “inactive”. For the same compound, the Activity (HepG2 [10]) was “Non-toxic”, the Activity (HepG2 [11]) was “Non-toxic” and the inhibition [12] was “Active”. For the same compound, the Activity (HepG2 [13]) was “Active”, the Activity (HepG2 [14]) was “Non-toxic” and the inhibition [15] was “Active”. For the same compound, the Activity (HepG2 [16]) was “Non-toxic”.
